In ChEMBL document CHEMBL3508140 (2016):

Legend:
[1] = Terminal half-life of doxorubicin following intravenous doxorubicin at 1.27 mg.Kg-1 dose in dog; type: ADME, organism-based, Canis lupus familiaris, Beagle, Plasma; parameters: dose 1.27 mg.Kg-1, dosed compound id 2.46809e+06, dosed compound name Doxorubicin, route intravenous; settings: in vivo
[2] = Volume of distribution of adriamycin following intravenous adriamycin at 1.27 mg.Kg-1 dose in dog; type: ADME, organism-based, Canis lupus familiaris; parameters: dose 1.27 mg.Kg-1, dosed compound id 2.46809e+06, dosed compound name Doxorubicin, route intravenous; settings: Beagle, plasma
[3] = Plasma clearance of adriamycin following intravenous adriamycin at 1.27 mg.Kg-1 dose in dog; type: ADME, organism-based, Canis lupus familiaris; parameters: dose 1.27 mg.Kg-1, dosed compound id 2.46809e+06, dosed compound name Doxorubicin, route intravenous; settings: Beagle, read-out: Clp
[4] = Mortality occurred following reference intravenous doxorubicin at 1 mg.Kg-1 per week in rat; type: toxicity, organism-based, SD; parameters: dose 1 mg.Kg-1, dosed compound id 2.46809e+06, dosed compound name Doxorubicin, dose level High, gender Mixed, regimen Once per week, route intravenous, sampling time 17 Week, study doses 0/0.3/0.6/1 mg.Kg-1; settings: in vivo
[5] = Decrease in leukocytes observed following reference intravenous doxorubicin at 1 mg.Kg-1 per week in rat; type: toxicity, organism-based, SD, Blood; parameters: dose 1 mg.Kg-1, dosed compound id 2.46809e+06, dosed compound name Doxorubicin, dose level High, gender Mixed, regimen Once per week, route intravenous, sampling time 36 Week, study doses 0/0.3/0.6/1 mg.Kg-1; settings: in vivo
[6] = Increase in serum triglycerides level following reference intravenous doxorubicin at 1 mg.Kg-1 per week in rat; type: toxicity, organism-based, SD; parameters: dose 1 mg.Kg-1, dosed compound id 2.46809e+06, dosed compound name Doxorubicin, dose level High, gender Mixed, regimen Once per week, route intravenous, sampling time 8-22 Week, study doses 0/0.3/0.6/1 mg.Kg-1; settings: in vivo
[7] = Increase in serum total cholesterol level following reference intravenous doxorubicin at 1 mg.Kg-1 per week in rat; type: toxicity, organism-based, SD; parameters: dose 1 mg.Kg-1, dosed compound id 2.46809e+06, dosed compound name Doxorubicin, dose level High, gender Mixed, regimen Once per week, route intravenous, sampling time 8-22 Week, study doses 0/0.3/0.6/1 mg.Kg-1; settings: in vivo
[8] = Increase in serum phospholipid level following reference intravenous doxorubicin at 1 mg.Kg-1 per week in rat; type: toxicity, organism-based, SD; parameters: dose 1 mg.Kg-1, dosed compound id 2.46809e+06, dosed compound name Doxorubicin, dose level High, gender Mixed, regimen Once per week, route intravenous, sampling time 8-22 Week, study doses 0/0.3/0.6/1 mg.Kg-1; settings: in vivo
[9] = Incidence of persistent proteinuria following reference intravenous doxorubicin at 1 mg.Kg-1 per week in rat; type: toxicity, organism-based, SD; parameters: dose 1 mg.Kg-1, dosed compound id 2.46809e+06, dosed compound name Doxorubicin, dose level High, gender Mixed, regimen Once per week, route intravenous, sampling time 36 Week, study doses 0/0.3/0.6/1 mg.Kg-1; settings: in vivo
[10] = Incidence of leukocyturia following reference intravenous doxorubicin at 1 mg.Kg-1 per week in rat; type: toxicity, organism-based, SD; parameters: dose 1 mg.Kg-1, dosed compound id 2.46809e+06, dosed compound name Doxorubicin, dose level High, gender Mixed, regimen Once per week, route intravenous, sampling time 36 Week, study doses 0/0.3/0.6/1 mg.Kg-1; settings: in vivo
[11] = Decrease in albumin due to persistent proteinuria following reference intravenous doxorubicin at 1 mg.Kg-1 per week in rat; type: toxicity, organism-based, SD, Serum; parameters: dose 1 mg.Kg-1, dosed compound id 2.46809e+06, dosed compound name Doxorubicin, dose level High, gender Mixed, regimen Once per week, route intravenous, sampling time 36 Week, study doses 0/0.3/0.6/1 mg.Kg-1; settings: in vivo
[12] = Volume of distribution at steady state following doxorubicin at 60 mg.m-2 dose in patients with cancer; type: ADME, organism-based; parameters: dose 60 mg.m-2, dosed compound id 2.46809e+06, dosed compound name Doxorubicin; settings: human, plasma, read-out: Vss
Homo sapiens = species on record: Homo sapiens; assay: Binding of doxorubicin to plasma protein of human; type: cell-free
Albumin = Albumin (Homo sapiens, UniProt P02768); assay: Binding of doxorubicin to albumin; type: cell-free; settings: read-out: Plasma protein binding (converted)
[13] = Percentage of doxorubicin excreted unchanged in urine following doxorubicin at 60 mg.m-2 dose in cancer patients; type: ADME, organism-based; parameters: dose 60 mg.m-2, dosed compound id 2.46809e+06, dosed compound name Doxorubicin; settings: human, at 60 mg/m2, read-out: Compound recovery
[14] = Renal clearance of doxorubicin following doxorubicin at 60 mg.m-2 dose in cancer patients; type: ADME, organism-based, Kidney; settings: human, in vivo, iv, read-out: Renal clearance (converted)
[15] = Elimination of doxorubicin following doxorubicin at 60 mg.m-2 dose in cancer patients; type: ADME, organism-based, Plasma; settings: human, in vivo, iv
[16] = Mean plasma clearance of doxorubicin following intravenous doxorubicin at 60 mg.m-2 dose in cancer patients; type: ADME, organism-based; settings: human, read-out: CLp (converted)
[17] = Mean terminal half-life of doxorubicin following intravenous doxorubicin at 60 mg.m-2 dose in cancer patients; settings: human, plasma
[18] = Mean AUC of doxorubicin following intravenous doxorubicin at 60 mg.m-2 dose in cancer patients; type: ADME, organism-based; settings: human, plasma
[19] = Detection of doxorubicin in plasma following single intravenous doxorubicin at 10 mg.Kg-1 dose in female mouse bearing colon tumor; type: ADME, organism-based, BALB/c; parameters: dose 10 mg.Kg-1, dosed compound id 2.46809e+06, dosed compound name Doxorubicin, gender F, regimen Single, route intravenous, sampling time 48 h; settings: in vivo
[20] = Detection of doxorubicin in heart following single intravenous doxorubicin at 10 mg.Kg-1 dose in female mouse bearing colon tumor; type: ADME, organism-based, BALB/c; parameters: dose 10 mg.Kg-1, dosed compound id 2.46809e+06, dosed compound name Doxorubicin, gender F, regimen Single, route intravenous, sampling time 48 h; settings: in vivo
[21] = Detection of doxorubicin in tumor following single intravenous doxorubicin at 10 mg.Kg-1 dose in female mouse bearing colon tumor; type: ADME, organism-based, BALB/c, Neoplasm; parameters: dose 10 mg.Kg-1, dosed compound id 2.46809e+06, dosed compound name Doxorubicin, gender F, regimen Single, route intravenous, sampling time 48 h; settings: in vivo
[22] = AUC values (0-48 h) of doxorubicin in plasma following single intravenous doxorubicin at 10 mg.Kg-1 dose in female mouse bearing colon tumor; type: ADME, organism-based, BALB/c; parameters: time < 48 hr, dose 10 mg.Kg-1, dosed compound id 2.46809e+06, dosed compound name Doxorubicin, gender F, regimen Single, route intravenous, sampling time 48 h; settings: in vivo
[23] = AUC values (0-48 h) of doxorubicin in heart following single intravenous doxorubicin at 10 mg.Kg-1 dose in female mouse bearing colon tumor; type: ADME, organism-based, BALB/c; parameters: time < 48 hr, dose 10 mg.Kg-1, dosed compound id 2.46809e+06, dosed compound name Doxorubicin, gender F, regimen Single, route intravenous, sampling time 48 h; settings: in vivo
[24] = AUC values (0-48 h) of doxorubicin in tumor following single intravenous doxorubicin at 10 mg.Kg-1 dose in female mouse bearing colon tumor; type: ADME, organism-based, BALB/c, Neoplasm; parameters: time < 48 hr, dose 10 mg.Kg-1, dosed compound id 2.46809e+06, dosed compound name Doxorubicin, gender F, regimen Single, route intravenous, sampling time 48 h; settings: in vivo
[25] = (§1) Urinary elimination of adriamycin following intravenous bolus adriamycin at 10 mg.Kg-1 dose in rat; type: ADME, organism-based; parameters: dose 10 mg.Kg-1, dosed compound id 2.46809e+06, dosed compound name Doxorubicin, route intravenous, sampling time 0-6 h; settings: SD, urine, read-out: Compound recovery
[26] = as §1; type: ADME, organism-based; parameters: dose 10 mg.Kg-1, dosed compound id 2.46809e+06, dosed compound name Doxorubicin, route intravenous, sampling time 0-24 h; settings: SD, urine, read-out: Compound recovery
[27] = as §1; type: ADME, organism-based; parameters: dose 10 mg.Kg-1, dosed compound id 2.46809e+06, dosed compound name Doxorubicin, route intravenous, sampling time 0-60 h; settings: SD, urine, read-out: Compound recovery
in vivo [28] = settings: Beagle, dog, plasma, iv, 1.27 mg/kg
in vivo [29] = settings: female, BALB/c, mouse, plasma, iv, 10 mg/kg
in vivo [30] = settings: female, BALB/c, mouse, heart, iv, 10 mg/kg
in vivo [31] = settings: female, BALB/c, mouse, tumor, iv, 10 mg/kg

Albumin, sequence (P02768 whole entry): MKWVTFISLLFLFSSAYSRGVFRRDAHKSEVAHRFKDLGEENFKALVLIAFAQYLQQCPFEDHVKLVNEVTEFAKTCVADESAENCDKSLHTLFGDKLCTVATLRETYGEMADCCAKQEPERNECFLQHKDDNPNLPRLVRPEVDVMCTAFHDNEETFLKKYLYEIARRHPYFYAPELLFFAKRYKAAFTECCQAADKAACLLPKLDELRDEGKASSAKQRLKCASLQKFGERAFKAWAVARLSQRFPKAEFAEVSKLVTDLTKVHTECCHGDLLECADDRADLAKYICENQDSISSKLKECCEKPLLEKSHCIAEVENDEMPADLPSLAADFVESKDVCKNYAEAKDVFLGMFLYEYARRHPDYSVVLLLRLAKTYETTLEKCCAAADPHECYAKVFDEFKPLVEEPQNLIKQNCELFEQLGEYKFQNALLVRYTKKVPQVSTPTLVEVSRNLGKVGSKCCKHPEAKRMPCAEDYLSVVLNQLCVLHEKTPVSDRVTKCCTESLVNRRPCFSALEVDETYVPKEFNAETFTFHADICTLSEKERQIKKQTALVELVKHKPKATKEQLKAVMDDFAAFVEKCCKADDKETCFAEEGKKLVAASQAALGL

In the case of `COc1cccc2c1C(=O)c1c(O)c3c(c(O)c1C2=O)C[C@@](O)(C(=O)CO)C[C@@H]3O[C@H]1C[C@H](N)[C@H](O)[C@H](C)O1` [DOXORUBICIN], the t1/2 [1] is reported as “VALUE = Shorter than doxorubicin”, the Vd [2] is reported as 19.1 L/kg and the clearance [3] is reported as 607 mL/min. For the same molecule, the Mortality [4] was “OUTCOME = Observed, N_AFFECTED = 9”, the WBC_CHANGE [5] was 45% and the TRIG_CHANGE [6] was “OUTCOME = Increased”. The CHOL_CHANGE [7] was “OUTCOME = Increased”, the PHOSLPD_CHANGE [8] was “OUTCOME = Increased” and the Incidence [9] was “OUTCOME = Observed”. For the same molecule, the Incidence [10] was “OUTCOME = Observed”, the ALB_CHANGE [11] was “OUTCOME = Decreased” and the Vd [12] was 33 L/kg. It also gave a PPB (Homo sapiens) of 71%, a fraction unbound (Albumin) of 0.38 and a dose excreted at 7 Day [13] of 9%. The CL renal [14] was 76.7 mL/min, the Elimination [15] was “OUTCOME = Observed” and the clearance [16] was 950 mL/min. The half-life [17] was 48 h, the AUC [18] was 1970 ng·h/mL and the Compound recovery [19] was “OUTCOME = Observed”. For the same molecule, the Compound recovery [20] was “OUTCOME = Observed”, the Compound recovery [21] was “OUTCOME = Observed” and the AUC [22] was 204.9 nmol·min/mL. For the same molecule, the AUC [23] was 14100 nmol·min/g, the AUC [24] was 8700 nmol·min/g and the dose excreted [25] was 2.08%. The dose excreted [26] was 2.77%, the dose excreted [27] was 3.33% and the half-life (in vivo [28]) was 5.4 min. For the same molecule, the half-life (in vivo [29]) was 49.5 h, the half-life (in vivo [30]) was 13.2 h and the half-life (in vivo [31]) was 32.1 h.
